Measurements published in patent US20250136596A1, “MEMBRANE-ASSOCIATED TYROSINE- AND THREONINE-SPECIFIC CDC2-INHIBITORY KINASE (PKMYT1) INHIBITORS AND USES THEREOF” (Insilico Medicine IP Limited, priority 2022, published 2025).

Molecular target: PKMYT1 (Homo sapiens (Human), UniProt Q99640)
Assay: PKMYT1 HTRF Assay
Format: binding
Conditions: Tracer 178, GST-Tb; compound 10 μM to 0.5 nM; read-out: MYT1 HTRF IC50
Description: Example A: PKMYT1 HTRF Assay
Compound serial dilution is performed by Echo, and the final concentrations vary from 10 μM to 0.5 nM. This was filled by the addition of 5 μL/well of Enzyme solution to the assay plate containing the compound. The plate was centrifuged at 1000 rpm for 1 minute, and incubate 15 minutes at 25 ? . Then 5 μL/well of tracer solution (Tracer 178) was added to initiate the reaction, and incubate for 60 minutes at 25° C. Next 5 μL GST-Tb was added into the assay plate, the plate was centrifuged at 1000 rpm for 1 minute, and incubate for 15 minutes at 25 ? . The assay plate was read on Envision.

Chain of PKMYT1 (Q99640 whole entry): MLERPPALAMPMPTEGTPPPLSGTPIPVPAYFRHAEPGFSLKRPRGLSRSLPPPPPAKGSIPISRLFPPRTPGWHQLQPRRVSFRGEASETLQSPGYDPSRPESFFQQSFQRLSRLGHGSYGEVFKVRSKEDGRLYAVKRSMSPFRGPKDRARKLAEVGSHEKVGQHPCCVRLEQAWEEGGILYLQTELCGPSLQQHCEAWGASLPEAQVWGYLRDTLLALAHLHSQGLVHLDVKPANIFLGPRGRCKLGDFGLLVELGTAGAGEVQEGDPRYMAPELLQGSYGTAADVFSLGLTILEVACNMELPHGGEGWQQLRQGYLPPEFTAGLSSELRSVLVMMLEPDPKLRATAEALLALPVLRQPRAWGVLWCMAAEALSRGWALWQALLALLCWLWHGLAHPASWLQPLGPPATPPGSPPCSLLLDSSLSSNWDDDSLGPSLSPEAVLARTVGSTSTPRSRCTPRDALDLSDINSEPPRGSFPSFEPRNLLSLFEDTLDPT

Structure (SMILES) | IC50 [nM]
Cc1ncc(-c2[nH]c3ncc(-c4c(C)ccc(O)c4C)nc3c2C)cn1 [Example 13, 2,4-dimethyl-3-(7-methyl-6-(2-methylpyrimidin-5-yl)-5H-pyrrolo[2,3-b]pyrazin-2-yl)phenol] | 10 to 50
COCCOc1ncc(-c2cc3c(C#N)c(-c4c(C)ccc(O)c4C)cnc3[nH]2)cn1 [Example 75, (R)-5-(3-hydroxy-2,6-dimethylphenyl)-2-(2-(2-methoxyethoxy)pyrimidin-5-yl)-1H-pyrrolo[2,3-b]pyridine-4-carbonitrile] | < 10
Cc1ccc(O)c(C)c1-c1cnc2[nH]c(-c3cnc(C)c(=O)[nH]3)c(Cl)c2c1C#N [Example 64, 3-chloro-5-(3-hydroxy-2,6-dimethylphenyl)-2-(5-methyl-6-oxo-1,6-dihydropyrazin-2-yl)-1H-pyrrolo[2,3-b]pyridine-4-carbonitrile] | 10 to 50
Cc1ncc(-c2cc3c(C#N)c(-c4c(C)ccc(O)c4C)cnc3[nH]2)cn1 (atropisomer, axis not shown) [Example 32, (S)-5-(3-hydroxy-2,6-dimethylphenyl)-2-(2-methylpyrimidin-5-yl)-1H-pyrrolo[2,3-b]pyridine-4-carbonitrile] | < 10
Cc1ccc(O)c(C)c1-c1cnc2[nH]c(-c3cnc(N4CCC(F)(F)C4)nc3)cc2c1C#N [Example 37, 2-(2-(3,3-difluoropyrrolidin-1-yl)pyrimidin-5-yl)-5-(3-hydroxy-2,6-dimethylphenyl)-1H-pyrrolo[2,3-b]pyridine-4-carbonitrile] | < 10
Cc1ncc(-c2[nH]c3ncc(-c4c(C)ccc(O)c4C)cc3c2C#N)cn1 [Example 27, 5-(3-hydroxy-2,6-dimethylphenyl)-2-(2-methylpyrimidin-5-yl)-1H-pyrrolo[2,3-b]pyridine-3-carbonitrile] | 10 to 50
Cc1ccc(O)c(C)c1-c1cnc2[nH]c(-c3cnc(N4CC(O)C4)nc3)cc2c1C#N [Example 45, (R)-5-(3-hydroxy-2,6-dimethylphenyl)-2-(2-(3-hydroxyazetidin-1-yl)pyrimidin-5-yl)-1H-pyrrolo[2,3-b]pyridine-4-carbonitrile] | < 10
Cc1ccc(O)c(C)c1-c1cnc2[nH]c(-c3cnn(C)c3)cc2c1C#N [Example 118, (S)-5-(3-hydroxy-2,6-dimethylphenyl)-2-(1-methyl-1H-pyrazol-4-yl)-1H-pyrrolo[2,3-b]pyridine-4-carbonitrile] | < 10
Cc1ccc(O)c(C)c1-c1cnc2[nH]c(-c3cnc(N4CCC(C(N)=O)C4)nc3)c(Cl)c2c1C#N [Example 73, (S)-1-(5-((R)-3-chloro-4-cyano-5-(3-hydroxy-2,6-dimethylphenyl)-1H-pyrrolo[2,3-b]pyridin-2-yl)pyrimidin-2-yl)pyrrolidine-3-carboxamide] | < 10
Cc1ccc(O)c(C)c1-c1cnc2[nH]c(-c3cnn(C)c(=O)c3)c(Cl)c2c1C#N [Example 66, (R)-3-chloro-5-(3-hydroxy-2,6-dimethylphenyl)-2-(1-methyl-6-oxo-1,6-dihydropyridazin-4-yl)-1H-pyrrolo[2,3-b]pyridine-4-carbonitrile] | < 10
Cc1ccc(-c2cc3cc(-c4c(C)ccc(O)c4C)cnc3[nH]2)cn1 [Example 5, 2,4-dimethyl-3-(2-(6-methylpyridin-3-yl)-1H-pyrrolo[2,3-b]pyridin-5-yl)phenol] | 10 to 50
Cc1ncc(-c2cc3c(C)c(-c4c(C)ccc(O)c4C)cnc3[nH]2)cn1 [Example 26, (R)-2,4-dimethyl-3-(4-methyl-2-(2-methylpyrimidin-5-yl)-1H-pyrrolo[2,3-b]pyridin-5-yl)phenol] | < 10
Cc1ccc(O)c(C)c1-c1cnc2[nH]c(-c3cnc(N4C[C@@H]5C[C@H]4CO5)nc3)c(C#CC(C)(C)O)c2n1 [Example 21, 3-(6-(2-((1S,4S)-2-oxa-5-azabicyclo[2.2.1]heptan-5-yl)pyrimidin-5-yl)-7-(3-hydroxy-3-methylbut-1-yn-1-yl)-5H-pyrrolo[2,3-b]pyrazin-2-yl)-2,4-dimethylphenol] | < 10
Cc1ncc(-c2[nH]c3ncc(-c4c(C)ccc(O)c4C)c(C#N)c3c2C#CC2(O)COC2)cn1 [Example 111, (S)-5-(3-hydroxy-2,6-dimethylphenyl)-3-((3-hydroxyoxetan-3-yl)ethynyl)-2-(2-methylpyrimidin-5-yl)-1H-pyrrolo[2,3-b]pyridine-4-carbonitrile] | < 10
Cc1ncc(-c2[nH]c3ncc(-c4c(C)ccc(O)c4C)c(C#N)c3c2Cl)s1 [Example 60, (R)-3-chloro-5-(3-hydroxy-2,6-dimethylphenyl)-2-(2-methylthiazol-5-yl)-1H-pyrrolo[2,3-b]pyridine-4-carbonitrile] | < 10
Cc1ncc(-c2[nH]c3ncc(-c4c(C)ccc(O)c4C)c(C#N)c3c2Cl)c(C)n1 [Example 78, (R)-3-chloro-2-(2,4-dimethylpyrimidin-5-yl)-5-(3-hydroxy-2,6-dimethylphenyl)-1H-pyrrolo[2,3-b]pyridine-4-carbonitrile] | 50 to 500

Structure (SMILES) | IC50 [nM]
CCc1c(O)ccc(C)c1-c1cnc2[nH]c(-c3cnc(C)nc3)cc2c1C#N [Example 90, 5-(2-ethyl-3-hydroxy-6-methylphenyl)-2-(2-methylpyrimidin-5-yl)-1H-pyrrolo[2,3-b]pyridine-4-carbonitrile] | 50 to 500
Cc1ncc(-c2cc3c(C#N)c(-c4c(C)ccc(O)c4C)cnc3[nH]2)s1 [Example 59, (R)-5-(3-hydroxy-2,6-dimethylphenyl)-2-(2-methylthiazol-5-yl)-1H-pyrrolo[2,3-b]pyridine-4-carbonitrile] | < 10
Cc1ccc(O)c(C)c1-c1cnc2[nH]c(-c3cnc(N4CC(C)(O)C4)nc3)cc2c1Cl [Example 25, (S)-1-(5-(4-chloro-5-(3-hydroxy-2,6-dimethylphenyl)-1H-pyrrolo[2,3-b]pyridin-2-yl)pyrimidin-2-yl)-3-methylazetidin-3-ol] | < 10
Cc1ccc(O)c(C)c1-c1cnc2[nH]c(-n3ccnc3)cc2c1C#N [Example 122, (S)-5-(3-hydroxy-2,6-dimethylphenyl)-2-(1H-imidazol-1-yl)-1H-pyrrolo[2,3-b]pyridine-4-carbonitrile] | < 10
Cc1ccc(O)c(C)c1-c1cnc2[nH]c(-c3cnc(CO)nc3)cc2c1C#N [Example 58, (S)-5-(3-hydroxy-2,6-dimethylphenyl)-2-(2-(hydroxymethyl)pyrimidin-5-yl)-1H-pyrrolo[2,3-b]pyridine-4-carbonitrile] | < 10
Cc1ccc(O)c(C)c1-c1cnc2[nH]c(-c3cnc(N4CCC(F)(F)C4)nc3)c(Cl)c2c1C#N [Example 38, (R)-3-chloro-2-(2-(3,3-difluoropyrrolidin-1-yl)pyrimidin-5-yl)-5-(3-hydroxy-2,6-dimethylphenyl)-1H-pyrrolo[2,3-b]pyridine-4-carbonitrile] | < 10
Cc1ncc(-c2cc3c(N)c(-c4c(C)ccc(O)c4C)cnc3[nH]2)cn1 [Example 30, 3-(4-amino-2-(2-methylpyrimidin-5-yl)-1H-pyrrolo[2,3-b]pyridin-5-yl)-2,4-dimethylphenol] | 50 to 500
Cc1ccc(O)c(C)c1-c1cnc2[nH]c(-c3cnc(C(N)=O)nc3)cc2c1C#N [Example 105, (R)-5-(4-cyano-5-(3-hydroxy-2,6-dimethylphenyl)-1H-pyrrolo[2,3-b]pyridin-2-yl)pyrimidine-2-carboxamide] | < 10
C#Cc1c(-c2cnc(C)nc2)[nH]c2ncc(-c3c(C)ccc(O)c3C)c(C#N)c12 [Example 109, (S)-3-ethynyl-5-(3-hydroxy-2,6-dimethylphenyl)-2-(2-methylpyrimidin-5-yl)-1H-pyrrolo[2,3-b]pyridine-4-carbonitrile] | < 10
Cc1ccc(O)c(C)c1-c1cnc2[nH]c(-c3cnc(N4C5CC[C@@H]4COC5)nc3)cc2c1C#N [Example 99, (5R)-2-(2-(3-oxa-8-azabicyclo[3.2.1]octan-8-yl)pyrimidin-5-yl)-5-(3-hydroxy-2,6-dimethylphenyl)-1H-pyrrolo[2,3-b]pyridine-4-carbonitrile] | < 10
CC#Cc1ncc(-c2cc3c(C#N)c(-c4c(C)ccc(O)c4C)cnc3[nH]2)cn1 [Example 104, (R)-5-(3-hydroxy-2,6-dimethylphenyl)-2-(2-(prop-1-yn-1-yl)pyrimidin-5-yl)-1H-pyrrolo[2,3-b]pyridine-4-carbonitrile] | < 10
Cc1ccc(O)c(C)c1-c1cnc2[nH]c(-c3cnc(NC4CC4)nc3)cc2c1C#N [Example 47, (R)-2-(2-(cyclopropylamino)pyrimidin-5-yl)-5-(3-hydroxy-2,6-dimethylphenyl)-1H-pyrrolo[2,3-b]pyridine-4-carbonitrile] | < 10
Cc1ccc(O)c(C)c1-c1cnc2[nH]c(-c3cnn(C)c(=O)c3)cc2c1C#N [Example 65, 5-(3-hydroxy-2,6-dimethylphenyl)-2-(1-methyl-6-oxo-1,6-dihydropyridazin-4-yl)-1H-pyrrolo[2,3-b]pyridine-4-carbonitrile] | < 10
Cc1ccc(O)c(C)c1-c1cnc2[nH]c(-c3ccc(N4CCN(C)CC4)nc3)c(C)c2c1 [Example 3, 2,4-dimethyl-3-(3-methyl-2-(6-(4-methylpiperazin-1-yl)pyridin-3-yl)-1H-pyrrolo[2,3-b]pyridin-5-yl)phenol] | 50 to 500
Cc1ccc(O)c(C)c1-c1cnc2[nH]c(-c3ccn(C)c(=O)c3)cc2c1 [Example 9, 4-(5-(3-hydroxy-2,6-dimethylphenyl)-1H-pyrrolo[2,3-b]pyridin-2-yl)-1-methylpyridin-2 (1H)-one] | 10 to 50
Cc1ccc(O)c(C)c1-c1cnc2[nH]c(-c3cnc4[nH]ncc4c3)cc2c1C#N [Example 123, (S)-5-(3-hydroxy-2,6-dimethylphenyl)-2-(1H-pyrazolo[3,4-b]pyridin-5-yl)-1H-pyrrolo[2,3-b]pyridine-4-carbonitrile] | < 10
